For test [1], the system named is PC-3 cells. Kind of test: Cell Proliferation Assay (Cell Titer Glo), PC-3 cell line. The settings on record: PC3, read-out: CPEC50 PC3. The test is classed as cell-based. The essentials:
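Cell Titer Glo luminescence, read after fresh medium replaced the dosing medium, gave viability of PC-3 cells plated at 1000 cells/well. Compounds, 1:3 serially diluted in DMSO at 500× and then in medium, were added after 3-5 h adhesion and incubated 3 days at 37° C.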
For orientation: ATP-based viability assays read luminescence as a measure of living cells.

Test [2] deals with T1, PDK1 kinase (Homo sapiens, UniProt O15530).
T1 sequence (O15530 1-556): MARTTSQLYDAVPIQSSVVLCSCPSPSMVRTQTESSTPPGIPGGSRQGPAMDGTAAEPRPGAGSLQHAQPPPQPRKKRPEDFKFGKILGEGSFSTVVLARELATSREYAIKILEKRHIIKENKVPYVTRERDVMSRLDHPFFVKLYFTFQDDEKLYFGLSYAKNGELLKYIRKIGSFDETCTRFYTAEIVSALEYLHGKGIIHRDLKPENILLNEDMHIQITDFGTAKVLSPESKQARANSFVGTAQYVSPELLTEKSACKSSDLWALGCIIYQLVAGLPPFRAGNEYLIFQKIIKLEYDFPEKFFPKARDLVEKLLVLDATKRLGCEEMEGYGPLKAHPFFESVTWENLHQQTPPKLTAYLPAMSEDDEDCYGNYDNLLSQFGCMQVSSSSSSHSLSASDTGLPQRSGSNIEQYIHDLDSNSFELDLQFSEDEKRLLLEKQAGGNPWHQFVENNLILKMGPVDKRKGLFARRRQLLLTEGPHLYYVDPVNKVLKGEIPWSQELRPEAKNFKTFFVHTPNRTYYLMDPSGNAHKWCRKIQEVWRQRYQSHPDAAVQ
Kind of test: PDK1 Kinase Alpha Screen Assay. The test is classed as biochemical. The settings on record: PDK1 Kinase Alpha Screen Assay; read-out: PDK1 IC50. The essentials: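 AlphaScreen readout: phospho-peptide captured by phospho-(Ser/Thr) PKA substrate antibody (0.3 mg/ml) on protein A acceptor beads, biotin peptide on streptavidin donor beads (25 μg/ml each), overnight at room temperature. Kinase step used 50 nM PDK1-4 peptide, 10 uM ATP, 3-18 hours.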

Where [3] appears, read: Homo sapiens, PC-3, Cell Proliferation Assay.

We go through 29 compounds from US7932262B2 (Novartis AG, priority 2006, dated 2011).

Each structure is given as a SMILES string. Read-outs that look alike come from different tables or passages of the source. Some results are limits rather than exact numbers.

A word on the IC50: it is the concentration needed to halve the response being measured. In the case of `O=C(c1ccc(Nc2ncc3ccc(N(CCO)CCO)cc3n2)cc1)N1CCOCC1` [Compound 352, (4-(7-(bis(2-hydroxyethyl)amino)quinazolin-2-ylamino)phenyl)(morpholino)methanone], the EC50 in test [1] (setting [3]) fell in the range of 5 to 10 µM. For the same compound, the IC50 in test [2] is under 5 µM.
Take `O=C(c1ccc(Nc2ncc3ccc(-c4cnn(CCO)c4)cc3n2)cc1)N1CCOCC1` [Compound 353, (4-(7-(1-(2-hydroxyethyl)-1H-pyrazol-4-yl)quinazolin-2-ylamino)phenyl)(morpholino)methanone]: in test [1] (setting [3]), the EC50 lay in the range of 5 to 10 µM. Also, the IC50 in test [2] was under 5 µM.
For `CC(C)NC(=O)c1ccc(Nc2ncc3ccc(NC4CCN(C)CC4)cc3n2)cc1` [Compound 354, N-isopropyl-4-(7-(1-methylpiperidin-4-ylamino)quinazolin-2-ylamino)benzamide], the EC50 in test [1] (setting [3]) is under 5 µM. Also, the IC50 in test [2] is under 5 µM.
For `CN1CCC(Nc2ccc3cnc(Nc4ccc(N5CCOCC5)c(Cl)c4)nc3c2)CC1` [Compound 355, N2-(3-chloro-4-morpholinophenyl)-N7-(1-methylpiperidin-4-yl)quinazoline-2,7-dimaine], the EC50 in test [1] (setting [3]) was under 5 µM. Also, the IC50 in test [2] is under 5 µM.
Take `Cc1ccc(OC2CCNCC2)c2nc(Nc3ccc(C(=O)N4CCOCC4)cc3)ncc12` [Compound 356, (4-(5-methyl-8-(piperidin-4-yloxy)quinazolin-2-ylamino)phenyl)(morpholino)methanone]: in test [1] (setting [3]), the EC50 fell in the range of 5 to 10 µM. Also, the IC50 in test [2] was under 5 µM.
For the compound `CC(C)NS(=O)(=O)c1ccc(Nc2ncc3c(Br)ccc(OC4CCN(C(C)C)CC4)c3n2)cc1` [Compound 357, 4-(5-bromo-8-(1-isopropylpiperidin-4-yloxy)quinazolin-2-ylamino)-N-isopropylbenzenesulfonamide], the EC50 in test [1] (setting [3]) was under 5 µM. For the same compound, the IC50 in test [2] is under 5 µM.
Consider `CC(C)N1CCC(Oc2ccc(Br)c3cnc(Nc4ccc(C(=O)N5CCOCC5)cc4)nc23)CC1` [Compound 358, (4-(5-bromo-8-(1-isopropylpiperidin-4-yloxy)quinazolin-2-ylamino)phenyl)(morpholino)methanone], for which the EC50 in test [1] (setting [3]) was in the range of 5 to 10 µM. The IC50 in test [2] was under 5 µM.
Consider `Cc1ccc(OC2CCN(C(C)C)CC2)c2nc(Nc3ccc(C(=O)N4CCOCC4)cc3)ncc12` [Compound 359, (4-(8-(1-isopropylpiperidin-4-yloxy)-5-methylquinazolin-2-ylamino)phenyl)(morpholino)methanone], for which, in test [1] (setting [3]), the EC50 is 5 to 10 µM. In test [2], the IC50 was under 5 µM.
On the same counts, the results for `Cc1ccc(OC2CCN(C(C)C)CC2)c2nc(Nc3ccc(S(=O)(=O)NC(C)C)cc3)ncc12` [Compound 360, N-isopropyl-4-(8-(1-isopropylpiperidin-4-yloxy)-5-methylquinazolin-2-ylamino)benzenesulfonamide] are under 5 µM and under 5 µM.
On the same counts, the results for `NS(=O)(=O)c1ccc(Nc2ncc3ccc(NC4CCNCC4)cc3n2)cc1` [Compound 361, 4-(7-(piperidin-4-ylamino)quinazolin-2-ylamino)benzenesulfonamide] are 5 to 10 µM and under 5 µM.
Consider `Cc1ccc(OC2CCNCC2)c2nc(Nc3ccc(N4CCOCC4)c(Cl)c3)ncc12` [Compound 362, N-(3-chloro-4-morpholinophenyl)-5-methyl-8-(piperidin-4-yloxy)quinazolin-2-amine], for which the EC50 in test [1] (setting [3]) is under 5 µM. Moreover, in test [2], the IC50 is under 5 µM.
As for `Clc1cc(Nc2ncc3ccc(NC4CCNCC4)cc3n2)ccc1N1CCOCC1` [Compound 363, N2-(3-chloro-4-morpholinophenyl)-N7-(piperidin-4-yl)quinazoline-2,7-diamine], the EC50 in test [1] (setting [3]) was under 5 µM. The IC50 in test [2] is under 5 µM.
For `Cc1ccc(OC2CCNCC2)c2nc(Nc3cccc(F)c3)ncc12` [Compound 365, N-(3-fluorophenyl)-5-methyl-8-(piperidin-4-yloxy)quinazolin-2-amine], the EC50 in test [1] (setting [3]) is 5 to 10 µM. Besides, the IC50 in test [2] was under 5 µM.
On the same counts, the results for `Cc1ccc(OC2CCNCC2)c2nc(Nc3ccc(N4CCOCC4)c(F)c3)ncc12` [Compound 366, N-(3-fluoro-4-morpholinophenyl)-5-methyl-8-(piperidin-4-yloxy)quinazolin-2-amine] are 5 to 10 µM and under 5 µM.
Regarding `Cc1ccc(OC2CCNCC2)c2nc(Nc3ccc(S(=O)(=O)N4CCOCC4)cc3)ncc12` [Compound 367, 5-methyl-N-(4-(morpholinosulfonyl)phenyl)-8-(piperidin-4-yloxy)quinazolin-2-amine], the EC50 in test [1] (setting [3]) lay within 5 to 10 µM. Moreover, the IC50 in test [2] is under 5 µM.
For `CN1CCC(Nc2ccc3cnc(Nc4ccc(N5CCOCC5)c(F)c4)nc3c2)CC1` [Compound 368, N2-(3-fluoro-4-morpholinophenyl)-N7-(1-methylpiperidin-4-yl)quinazoline-2,7-diamine] the same measures were under 5 µM and under 5 µM.
On the same counts, the results for `CN1CCC(Nc2ccc3cnc(Nc4ccc(N5CCOCC5)cc4)nc3c2)CC1` [Compound 369, N7-(1-methylpiperidin-4-yl)-N2-(4-morpholinophenyl)quinazoline-2,7-diamine] are 5 to 10 µM and under 5 µM.
For `CN1CCN(c2ccc(Nc3ncc4c(Br)ccc(OC5CCNCC5)c4n3)cc2)CC1` [Compound 373, 5-bromo-N-(4-(4-methylpiperazin-1-yl)phenyl)-8-(piperidin-4-yloxy)quinazolin-2-amine] the same measures were under 5 µM and 10 to 25 µM.
On to `COc1cc(C(=O)NC2CCN(C)CC2)ccc1Nc1ncc2c(C)ccc(OC3CCNCC3)c2n1` [Compound 375, 3-methoxy-4-(5-methyl-8-(piperidin-4-yloxy)quinazolin-2-ylamino)-N-(1-methylpiperidin-4-yl)benzamide], for which the EC50 in test [1] (setting [3]) was 5 to 10 µM. Moreover, the IC50 in test [2] fell in the range of 5 to 10 µM.
For `CN1CCC(Nc2ccc(Cl)c3cnc(Nc4ccc(C(=O)N5CCOCC5)cc4)nc23)CC1` [Compound 377, (4-(5-chloro-8-(1-methylpiperidin-4-ylamino)quinazolin-2-ylamino)phenyl) (morpholino)methanone], the EC50 in test [1] (setting [3]) was under 5 µM. In addition, the IC50 in test [2] is under 5 µM.
In the case of `O=C(c1ccc(Nc2ncc3c(Cl)ccc(OC4CCNCC4)c3n2)cc1F)N1CCOCC1` [Compound 378, (4-(5-chloro-8-(piperidin-4-yloxy)quinazolin-2-ylamino)-2-fluorophenyl)(morpholino)methanone], the EC50 in test [1] (setting [3]) is under 5 µM. Also, the IC50 in test [2] was under 5 µM.
As to `CC(C)NC(=O)c1ccc(Nc2ncc3c(Cl)ccc(OC4CCNCC4)c3n2)cc1F` [Compound 379, 4-(5-chloro-8-(piperidin-4-yloxy)quinazolin-2-ylamino)-2-fluoro-N-isopropylbenzamide], the EC50 in test [1] (setting [3]) is under 5 µM. Moreover, the IC50 in test [2] is under 5 µM.
For the compound `COc1cccc(Nc2ncc3c(Cl)ccc(OC4CCNCC4)c3n2)c1` [Compound 380, 5-chloro-N-(3-methoxyphenyl)-8-(piperidin-4-yloxy)quinazolin-2-amine], in test [1] (setting [3]), the EC50 is under 5 µM. Moreover, the IC50 in test [2] was under 5 µM.
In the case of `NC(=O)c1cc(Nc2ncc3c(Cl)ccc(OC4CCNCC4)c3n2)cc(C(F)(F)F)c1` [Compound 381, 3-(5-chloro-8-(piperidin-4-yloxy)quinazolin-2-ylamino)-5-(trifluoromethyl)benzamide], the EC50 in test [1] (setting [3]) was under 5 µM. Besides, the IC50 in test [2] was under 5 µM.
As for `CC(=O)Nc1cc(NC(C)=O)cc(Nc2ncc3c(Cl)ccc(OC4CCNCC4)c3n2)c1` [Compound 382, N,N′-(5-(5-chloro-8-(piperidin-4-yloxy)quinazolin-2-ylamino)-1,3-phenylene)diacetamide], the EC50 in test [1] (setting [3]) lay in the range of 5 to 10 µM. Also, the IC50 in test [2] is under 5 µM.
For `COc1ccc(C(F)(F)F)c2cnc(Nc3ccc(C(=O)N4CCOCC4)cc3)nc12` [Compound 383] the same measures were 5 to 10 µM and under 5 µM.
As to `FC(F)(F)c1ccc(OC2CCNCC2)c2nc(Nc3ccc(N4CCOCC4)cc3)ncc12` [Compound 384, N-(4-morpholinophenyl)-8-(piperidin-4-yloxy)-5-(trifluoromethyl)quinazolin-2-amine], the EC50 in test [1] (setting [3]) was in the range of 5 to 10 µM. Moreover, in test [2], the IC50 is under 5 µM.
For the compound `FC(F)(F)c1ccc(OC2CCNCC2)c2nc(Nc3ccc(N4CCOCC4)cc3)ncc12` [Compound 385, N-(4-morpholinophenyl)-8-(piperidin-4-yloxy)-5-(trifluoromethyl)quinazolin-2-amine], in test [1] (Cell Proliferation Assay), the EC50 is under 5 µM. For the same compound, in test [2], the IC50 was under 5 µM.
Turning to `CC(C)N1CCC(Oc2cc(Br)cc3cnc(Nc4ccc(F)cc4)nc23)CC1` [Compound 389, 6-bromo-N-(4-fluorophenyl)-8-(1-isopropylpiperidin-4-yloxy)quinazolin-2-amine], in test [1] (setting [3]), the EC50 is under 5 µM. Moreover, the IC50 in test [2] is under 5 µM.
